# Reference: publication PMC6332026, “Synthesis and Pharmacochemistry of New Pleiotropic Pyrrolyl Derivatives” (Molecules, 2015)
# Assays:
# [1] = system: carrageenan-induced rat paw edema; design: method as in PMID 7714750; conditions: dose 0.44 mmol/kg; cited from earlier work
# [2] = Interaction with the stable free radical DPPH (reducing activity); conditions: DPPH 50 μM
# Method: 2,2-Diphenyl-1-picrylhydrazyl (DPPH) is a lipophilic, free, stable radical, which absorbs at 517 nm (violet color). Upon reduction, decolorization is observed that is stoichiometric to the number of received electrons and is representative of the antioxidant ability of compounds. […] This interaction, which indicates their radical scavenging ability in an iron-free system, was measured at 100 and 1000 μM after 20 and 60 min, whereas the final concentration of DPPH was stable at 50 μΜ.
# […] The absorbance was measured at 517 nm after 20 and 60 min at room temperature.
# [3] = system: carrageenan-induced rat paw edema; assay: Inhibition of rat paw edema induced by carrageenan; format: in vivo, Fischer 344 rats; conditions: Rattus norvegicus, ip; 0.01 mmol/kg body weight, intraperitoneally, 3.5 h; read-out: CPE % inhibition of rat paw edema induced by carrageenan
# Method: The pyrrolyl derivatives, as well as their precursor chalcones were tested in vivo for the inhibition of rat paw edema induced by carrageenan. […] […]. For Compounds 2i, 2iii, 2iv and 2v, we determined their ED50 values. […]. The finding supports the primary idea of this design.
# Edema was induced in the right hind paw of Fischer 344 rats (150–200 g). In the study, both males and females were included, with the exemption of pregnant females. The animals, which have been bred in our laboratory, were housed under standard conditions and received a diet of commercial food pellets and water ad libitum during maintenance. One hour before the onset of the experiment, food and water were removed. The tested compounds (dose 0.01 mmol/kg body weight) were diluted in water with a few drops of Tween 80, and they were administered intraperitoneally simultaneously with the intradermal injection of 0.1 mL 2% of carrageenan in water. The animals were euthanatized 3.5 h after the carrageenan administration. The difference between the weight of injected and uninjected paws was calculated for each animal and was compared to control animals, which were treated with water. Indomethacin was used as a reference compound in 0.01 mmol/kg. The results were expressed as the percent inhibition of the edema (CPE %).
# soybean lipoxygenase = target: T1, soybean lipoxygenase (Glycine max, UniProt P08170); assay: Inhibition of soybean lipoxygenase (UV absorbance-based enzyme assay); format: biochemical; conditions: pH 9.00, read-out: LOX IC50
# T1 construct: purchased Sigma Chemical, Co. (St. Louis, MO, USA)
# T1 sequence (P08170 1-839): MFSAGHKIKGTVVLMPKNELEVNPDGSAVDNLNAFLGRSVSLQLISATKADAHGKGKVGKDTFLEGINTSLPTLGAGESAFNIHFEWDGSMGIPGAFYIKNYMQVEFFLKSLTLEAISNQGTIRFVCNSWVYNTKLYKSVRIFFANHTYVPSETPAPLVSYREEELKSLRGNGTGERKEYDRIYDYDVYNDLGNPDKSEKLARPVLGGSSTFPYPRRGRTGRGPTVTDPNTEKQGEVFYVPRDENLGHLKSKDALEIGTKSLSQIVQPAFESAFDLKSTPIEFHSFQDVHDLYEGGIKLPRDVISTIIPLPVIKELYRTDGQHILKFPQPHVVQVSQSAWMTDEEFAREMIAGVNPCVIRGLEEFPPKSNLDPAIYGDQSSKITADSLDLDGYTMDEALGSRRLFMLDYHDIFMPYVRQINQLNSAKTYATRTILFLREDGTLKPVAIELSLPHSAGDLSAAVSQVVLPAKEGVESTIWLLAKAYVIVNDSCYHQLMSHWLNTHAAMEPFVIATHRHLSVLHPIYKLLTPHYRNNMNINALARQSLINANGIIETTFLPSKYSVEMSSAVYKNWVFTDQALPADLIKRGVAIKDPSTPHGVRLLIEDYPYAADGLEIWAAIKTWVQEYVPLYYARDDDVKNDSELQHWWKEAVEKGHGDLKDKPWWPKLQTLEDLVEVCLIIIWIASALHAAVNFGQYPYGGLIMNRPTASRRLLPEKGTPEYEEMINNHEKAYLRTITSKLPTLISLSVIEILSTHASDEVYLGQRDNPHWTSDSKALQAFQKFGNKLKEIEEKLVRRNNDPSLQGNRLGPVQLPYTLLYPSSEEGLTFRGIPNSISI
# Method: Lipoxygenase catalyzes the first two steps in the metabolism of arachidonic acid to leukotrienes. LTB4 generation is important in the pathogenesis of neutrophil-mediated inflammatory diseases with a marked relation to the severity of cardiovascular diseases, asthma and cancer. We evaluated the synthesized pyrroles for their ability to inhibit soybean LOX by the UV absorbance-based enzyme assay. […] The inhibition of COX-2, as a peroxidase, was determined by a colorimetric assay with the oxidation of N,N,N′,N′-tetramethyl-p-phenylenediamine (TMPD).
# The tested compounds were dissolved in DMSO, and the final concentration was 100 μΜ. The compounds were incubated at room temperature with sodium linoleate as a substrate (0.1 mL) in a buffer solution of Tris:HCl (pH 9.00) and 0.2 mL of a solution of soybean lipoxygenase.
SMILES,inhibition of carrageenan-induced rat paw edema [1] [%],"RA % (interaction with DPPH) ([2]; 100 μM compound, 20 min) [%]","RA % (interaction with DPPH) ([2]; 100 μM compound, 60 min) [%]","RA % (interaction with DPPH) ([2]; 1000 μM compound, 20 min) [%]","RA % (interaction with DPPH) ([2]; 1000 μM compound, 60 min) [%]",inhibition in vivo at 10 µmol/kg [3] [%],IC50 (soybean lipoxygenase) [µM]
O=C(c1ccccc1)c1ccc[nH]1 [2-benzoylpyrrole],34,,,,,,
O=C(c1ccccc1)c1cc[nH]c1 [3-benzoylpyrrole],43,,,,,,
"Cc1ccc(C(=O)c2ccc(CC(=O)O)n2C)cc1 [Tolmetin, reference compound]",,3,3,4,9,76,190
